According to paper PMC8596132 (Advanced Science, 2021):
Like-named read-outs stand apart in the source and are kept apart here. Bridge positions count the residues as written; N and C are the ends. Peptide text beside a SMILES is read from it.

How the values were obtained:
[1] = biological target: T1, TRPM8 channel (Mus musculus, UniProt Q8R4D5); experiment: single-channel patch-clamp recording, menthol activation (outside-out); type: cell-based; conditions: +80 mV
T1 construct: expressed in transfected cells; host or cells: HEK293 / HEK293T cells
T1 sequence (Q8R4D5 whole entry): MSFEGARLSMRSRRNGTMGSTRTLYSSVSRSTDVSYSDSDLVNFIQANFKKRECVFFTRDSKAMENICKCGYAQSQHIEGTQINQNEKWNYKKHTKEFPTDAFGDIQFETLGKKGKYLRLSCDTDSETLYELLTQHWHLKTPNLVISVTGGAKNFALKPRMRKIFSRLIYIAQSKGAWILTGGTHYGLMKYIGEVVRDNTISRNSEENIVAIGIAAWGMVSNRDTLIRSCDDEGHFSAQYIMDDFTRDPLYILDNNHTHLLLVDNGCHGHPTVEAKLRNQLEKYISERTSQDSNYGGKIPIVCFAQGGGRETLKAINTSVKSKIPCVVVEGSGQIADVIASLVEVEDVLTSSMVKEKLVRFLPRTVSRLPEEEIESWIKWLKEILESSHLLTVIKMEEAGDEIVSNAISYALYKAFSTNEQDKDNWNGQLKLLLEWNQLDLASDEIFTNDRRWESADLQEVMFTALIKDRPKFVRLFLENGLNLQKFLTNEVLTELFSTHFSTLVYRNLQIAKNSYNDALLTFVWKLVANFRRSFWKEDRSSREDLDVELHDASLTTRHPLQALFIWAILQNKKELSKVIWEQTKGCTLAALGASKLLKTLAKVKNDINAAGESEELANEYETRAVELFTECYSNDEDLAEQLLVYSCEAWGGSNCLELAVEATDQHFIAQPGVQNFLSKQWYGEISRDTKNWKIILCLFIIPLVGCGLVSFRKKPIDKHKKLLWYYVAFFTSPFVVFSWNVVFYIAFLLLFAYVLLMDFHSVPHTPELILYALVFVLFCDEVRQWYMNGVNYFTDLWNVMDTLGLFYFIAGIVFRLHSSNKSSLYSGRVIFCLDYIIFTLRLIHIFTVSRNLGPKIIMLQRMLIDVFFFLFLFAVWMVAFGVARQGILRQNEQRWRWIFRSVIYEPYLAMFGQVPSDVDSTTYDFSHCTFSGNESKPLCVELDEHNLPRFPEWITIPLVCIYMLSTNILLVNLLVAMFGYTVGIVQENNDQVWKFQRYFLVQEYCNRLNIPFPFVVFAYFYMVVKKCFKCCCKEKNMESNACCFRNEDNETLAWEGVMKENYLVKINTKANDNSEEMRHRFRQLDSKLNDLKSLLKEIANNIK
Procedure: (§1) Electrophysiological experiments were performed between 24 and 48 h after transfections. Specifically, single‐channel recordings were conducted about […] after transfection.
(§2) Patch‐clamp recordings were performed with a HEKA EPC10 amplifier with PatchMaster software (HEKA) in the whole‐cell, inside‐out, or outside‐out configuration. For whole cell recordings, patch pipettes were prepared from borosilicate glass and fire‐polished to a resistance of ≈3–6 MΩ. Serial resistance was compensated by 60%. Whole‐cell recordings were performed at ±80 mV. For single‐channel recordings, patch pipettes were fire‐polished to a higher resistance of 6–8 MΩ. Current signal was sampled at 10 kHz and filtered at 2.9 kHz. Membrane potential was clamped at +80 mV. All recordings were performed at room temperature (22 °C) with the maximum variation of 1 °C.
There were different solutions prepared for different ion channels current recordings. For TRPM8, TRPV1, TRPV2, TRPV3, and TRPA1 channels recording, the standard bath and pipette solution contained: 130 × 10^−3 M NaCl, 0.2 × 10^−3 M EDTA, and 3 × 10^−3 M HEPES, pH = 7.2. For TRPM4 channels recording, solutions with 130 × 10^−3 M NaCl and 3 × 10^−3 M HEPES, pH = 7.2 were used as standard bath solution. The pipette solutions required 500 × 10^−6 M CaCl2 mixing with 130 × 10^−3 M NaCl and 3 × 10^−3 M HEPES, pH = 7.2. TRPM2 currents were recorded with the help of standard bath solution of 147 × 10^−3 M NaCl, 2 × 10^−3 M KCl, 1 × 10^−3 M MgCl2, 10 × 10^−3 M HEPES, 2 × 10^−3 M CaCl2, 13 × 10^−3 M glucose, pH = 7.4 and the pipette solutions of 147 × 10^−3 M NaCl, 1 × 10^−3 M MgCl2, 10 × 10^−3 M HEPES, pH = 7.4. For NaV1.5, NaV1.7 channels, the standard bath solution was 140 × 10^−3 M NaCl, 3 × 10^−3 M KCl, 1 × 10^−3 M MgCl2, 1 × 10^−3 M CaCl2, 10 × 10^−3 M HEPES, pH = 7.2 and standard pipette solution was 140 × 10^−3 M CsF, 1 × 10^−3 M EGTA, 10× 10^−3 M NaCl, 10 × 10^−3 M MgCl2, 3 × 10^−3 M KCl, pH = 7.2. To evoke sodium channel currents, a holding potential of −80 mV was used with a testing pulse to +10 mV. […]

[2] = biological target: T2, TRPV2 (Homo sapiens, UniProt Q9Y5S1); experiment: whole-cell recording, TRPV2 ligand activation; type: cell-based; conditions: read-out: IC50, inhibition of TRPV2
T2 construct: expressed in transfected cells; host or cells: HEK293T
T2 sequence (Q9Y5S1 1-764): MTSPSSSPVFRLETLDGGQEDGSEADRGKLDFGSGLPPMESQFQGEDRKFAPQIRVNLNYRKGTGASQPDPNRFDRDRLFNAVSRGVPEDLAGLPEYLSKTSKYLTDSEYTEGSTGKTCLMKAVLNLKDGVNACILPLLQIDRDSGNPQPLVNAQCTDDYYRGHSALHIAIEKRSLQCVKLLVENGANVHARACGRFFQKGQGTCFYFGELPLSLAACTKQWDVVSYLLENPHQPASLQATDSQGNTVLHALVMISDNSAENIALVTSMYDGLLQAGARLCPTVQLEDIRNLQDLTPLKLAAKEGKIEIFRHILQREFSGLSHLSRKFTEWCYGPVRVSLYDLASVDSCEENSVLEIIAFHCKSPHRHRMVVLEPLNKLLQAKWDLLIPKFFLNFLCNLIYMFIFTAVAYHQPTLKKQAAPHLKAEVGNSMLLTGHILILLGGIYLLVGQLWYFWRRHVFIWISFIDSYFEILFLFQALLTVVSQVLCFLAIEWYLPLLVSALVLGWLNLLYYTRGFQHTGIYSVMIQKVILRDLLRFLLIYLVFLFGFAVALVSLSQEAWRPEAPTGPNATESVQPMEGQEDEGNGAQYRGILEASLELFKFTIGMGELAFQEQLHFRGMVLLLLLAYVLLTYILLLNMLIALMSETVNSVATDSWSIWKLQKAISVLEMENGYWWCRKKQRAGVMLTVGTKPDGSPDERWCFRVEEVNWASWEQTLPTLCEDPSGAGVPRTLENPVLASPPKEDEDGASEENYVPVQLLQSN
Procedure: as §2
There were different solutions prepared for different ion channels current recordings. For TRPM8, TRPV1, TRPV2, TRPV3, and TRPA1 channels recording, the standard bath and pipette solution contained: 130 × 10^−3 M NaCl, 0.2 × 10^−3 M EDTA, and 3 × 10^−3 M HEPES, pH = 7.2. For TRPM4 channels recording, solutions with 130 × 10^−3 M NaCl and 3 × 10^−3 M HEPES, pH = 7.2 were used as standard bath solution. […] TRPM2 currents were recorded with the help of standard bath solution of 147 × 10^−3 M NaCl, 2 × 10^−3 M KCl, 1 × 10^−3 M MgCl2, 10 × 10^−3 M HEPES, 2 × 10^−3 M CaCl2, 13 × 10^−3 M glucose, pH = 7.4 and the pipette solutions of 147 × 10^−3 M NaCl, 1 × 10^−3 M MgCl2, 10 × 10^−3 M HEPES, pH = 7.4. […]

[3] = biological target: T3, mouse TRPM8 channel (Mus musculus, UniProt Q8R4D5); experiment: whole-cell patch-clamp recording, menthol activation of TRPM8; type: cell-based
T3 construct: expressed in transfected cells; host or cells: HEK293 / HEK293T cells
T3 sequence (Q8R4D5 whole entry): as the sequence (Q8R4D5 whole entry) above
Procedure: HEK293T cells were cultured in Dulbecco's modified Eagle's medium with 10% fetal bovine serum, penicillin (100 U mL^−1), and streptomycin ([…]) at 37 °C with 5% CO2. Transient transfection was conducted by using Lipofectamine 2000 (Invitrogen) and following the instruction manual.
as §1
as §2, with “Membrane potential was clamped at +80 mV. All recordings were performed at room temperature (22 °C) with the maximum variation of 1 °C.” left out
There were different solutions prepared for different ion channels current recordings. […] TRPM2 currents were recorded with the help of standard bath solution of 147 × 10^−3 M NaCl, 2 × 10^−3 M KCl, 1 × 10^−3 M MgCl2, 10 × 10^−3 M HEPES, 2 × 10^−3 M CaCl2, 13 × 10^−3 M glucose, pH = 7.4 and the pipette solutions of 147 × 10^−3 M NaCl, 1 × 10^−3 M MgCl2, 10 × 10^−3 M HEPES, pH = 7.4. […]

[4] = body temperature measurement; type: in vivo; conditions: mice, i.v. 30 µg g^−1, rectal temperature up to 24 h, 5-9 animals
Procedure: Adult CD1 mice (male, 6–8 weeks) were used for behavioral and primary cultures of DRG neurons studies. Mice were group‐housed under the 12 h light‐dark cycle with access to standard food and water ad libitum. All the animal procedures were approved by the Institutional Animal Care & Use Committee (IACUC) of Zhejiang University.
A digital thermometer (FT3400) was used for body temperature measurement. Adult CD1 male mice were placed into an environmental room maintained at a constant temperature of 22 ± 1 °C. Body temperature was recorded using a rectal probe for mice (FT3400), which was inserted ≈2 cm from the anus. Body temperature was measured before treatment (baseline, BL) and at 5 min, 15 min, 0.5,1,2, 6, and 24 h following DeC‐1.2 (30 mg kg^−1, i.v.) administration.

## C[C@@H]1NC(=O)[C@H](CCCNC(=N)N)NC(=O)[C@H](CC(=O)O)NC(=O)[C@H](CCCNC(=N)N)NC(=O)[C@H](CCCNC(=N)N)NC(=O)[C@@H](N)CSSC[C@@H](C(=O)O)NC(=O)[C@H](CCCNC(=N)N)NC(=O)[C@H](CCC(N)=O)NC(=O)[C@H](CCCNC(=N)N)NC(=O)[C@H](Cc2ccc(O)cc2)NC(=O)[C@H](Cc2c[nH]cn2)NC(=O)[C@H](CCCNC(=N)N)NC1=O [DeC‐1.2] (H-CRRDRARHYRQRC-OH; disulfide 1-13)
[1]; outside-out, menthol 1 × 10^−3 M + DeC-1.2 100 × 10^−6 M, mean ± SEM, n = 5, SEM
  open probability of TRPM8 with DeC-1.2 plus menthol: 18.83 ± 1.92%
[2]
  IC50: ~10 µM
[3]; whole-cell patch clamp, TRPM8 expressed in HEK293 cells, −80 mV, 22 °C, n = 3, mean ± SEM, read-out: IC50, inhibition of menthol-induced TRPM8 activation
  IC50: 0.0045 ± 0.003 µM
[4]
  effect on body temperature: did not significantly alter body temperature

## CC1CCC(C(C)C)C(O)C1 (stereo not shown) [menthol]
[1]; saturating menthol 1 × 10^−3 M alone
  maximum open probability of TRPM8 activation by menthol: about 70%
[1]; saturating menthol 1 × 10^−3 M alone, mean ± SEM, n = 3, SEM
  single-channel conductance of TRPM8 with menthol: 58.83 ± 1.85 pS

## C[C@@H]1NC(=O)[C@H](C)NC(=O)[C@H](CCCNC(=N)N)NC(=O)[C@H](CO)NC(=O)[C@H](CC(N)=O)NC(=O)[C@H](CCCNC(=N)N)NC(=O)[C@@H](N)CSSC[C@@H](C(=O)O)NC(=O)[C@H](CCCCN)NC(=O)[C@H](CCC(N)=O)NC(=O)[C@H](CO)NC(=O)[C@H](CC(=O)O)NC(=O)[C@H](Cc2c[nH]cn2)NC1=O [DeC‐1.1] (H-CRNSRAAHDSQKC-OH; disulfide 1-13)
[3]; SEM
  IC50: 133 ± 73.5 µM
